Active and inactive are the calls of the source. The rule behind the calls is not given here.

For orientation: IC50 means the point on the concentration scale where inhibition reaches its midpoint.

The assay relates to cell viability, luminescent cytotoxicity assay. Put plainly: cytotoxicity, cell viability loss, SAR follow-up, cytotoxicity control for Gli-SUFU antagonist project, luminescence, set 2 (AID 651859).
As to `O=C(Nc1cc(N2CCSCC2)ncn1)c1ccccc1`, the IC50 is > 11.7 µM (inactive).

Turning to `O=C(Nc1cc(N2CCCCCC2)ncn1)c1ccccc1`, the IC50 was > 11.7 µM (inactive).

For the molecule `CCCCN(C)c1cc(NC(=O)c2ccccc2)ncn1`, the IC50 was > 11.7 µM (inactive).

`O=C(Nc1cc(N2CCCCC2)ncn1)c1ccco1`: the IC50 was > 11.7 µM (inactive).

Take `O=C(Nc1cc(N2CCCCC2)ncn1)c1ccsc1`: the IC50 was > 11.7 µM (inactive).

Consider `N#Cc1ccc(C(=O)Nc2cc(N3CCCCC3)ncn2)cc1`, for which the IC50 is > 11.7 µM (inactive).

Turning to `CC1CCCCN1c1cc(NC(=O)c2ccccc2)ncn1` (stereo not drawn), the IC50 was > 11.7 µM (inactive).

For the molecule `O=C(Nc1cc(N2CCCCC2)ncn1)c1ccccc1Cl`, the IC50 is > 11.7 µM (inactive).

Take `CCC(C)Nc1cc(NC(=O)c2ccccc2)ncn1` (stereo not drawn): the IC50 was > 11.7 µM (inactive).

As to `CC(C)Nc1cc(NC(=O)c2ccccc2)ncn1`, the IC50 is > 11.7 µM (inactive).

As for `CCOc1ccc(S(=O)(=O)NCc2ccncc2)cc1NC(=O)c1ccccc1`, the IC50 was > 11.7 µM (inactive).

Regarding `CCCCNc1cc(NC(=O)c2ccccc2)ncn1`, the IC50 was > 11.7 µM (inactive).

Regarding `CCOc1ccc(-c2nc(CSCC(=O)NC3CC3)c(C)o2)cc1`, the IC50 is > 11.7 µM (inactive).

Turning to `O=C(Nc1cc(N2CCOCC2)ncn1)c1ccccc1`, the IC50 was > 11.7 µM (inactive).

`O=C(Nc1cc(N2CCNCC2)ncn1)c1ccccc1`: the IC50 was > 11.7 µM (inactive).

Consider `Cc1ccc(C(=O)Nc2cc(N3CCCCC3)ncn2)cc1`, for which the IC50 was > 11.7 µM (inactive).

Take `COc1cccc(C(=O)Nc2cc(N3CCCCC3)ncn2)c1`: the IC50 was > 11.7 µM (inactive).

Take `O=C(Nc1cc(N2CCCCC2)ncn1)c1cc2ccccc2s1`: the IC50 is > 11.7 µM (inactive).

Turning to `O=C(Nc1cc(N2CCCCC2)ncn1)c1ccc(C(F)(F)F)cc1`, the IC50 is > 11.7 µM (inactive).

Turning to `N#Cc1cccc(C(=O)Nc2cc(N3CCCCC3)ncn2)c1`, the IC50 is > 11.7 µM (inactive).

In the case of `CC1CCN(c2cc(NC(=O)c3ccccc3)ncn2)CC1`, the IC50 is > 11.7 µM (inactive).

Take `O=C(Nc1cc(NCC2CCCO2)ncn1)c1ccccc1` (stereo not drawn): the IC50 was > 11.7 µM (inactive).

As to `CC(C)(C)Nc1cc(NC(=O)c2ccccc2)ncn1`, the IC50 was > 11.7 µM (inactive).

In the case of `CC(C)(C)OC(=O)N1CCN(c2cc(NC(=O)c3ccccc3)ncn2)CC1`, the IC50 is > 11.7 µM (inactive).

On to `COc1ccccc1C(=O)Nc1cc(N2CCCCC2)ncn1`, for which the IC50 is > 11.7 µM (inactive).

Consider `O=C(Nc1cc(N2CCCCC2)ncn1)c1ccccc1C(F)(F)F`, for which the IC50 was > 11.7 µM (inactive).

As for `O=C(Nc1cc(N2CCCCC2)ncn1)c1cccs1`, the IC50 is > 11.7 µM (inactive).

For the molecule `O=C(Nc1cc(N2CCCCC2)ncn1)c1ccccc1`, the IC50 is > 11.7 µM (inactive).

Regarding `O=C(Nc1cc(N2CCCCC2)ncn1)c1ccc(Cl)cc1`, the IC50 was > 11.7 µM (inactive).

As for `CC(C)CNc1cc(NC(=O)c2ccccc2)ncn1`, the IC50 was > 11.7 µM (inactive).

With `CN1CCN(c2cc(NC(=O)c3ccccc3)ncn2)CC1`, the IC50 is > 11.7 µM (inactive).

For `O=C(Nc1cc(N2CCCCC2)ncn1)c1cccc2ccccc12`, the IC50 is > 11.7 µM (inactive).

Take `O=C(Nc1cc(N2CCCCC2)ncn1)c1ccc2ccccc2c1`: the IC50 is > 11.7 µM (inactive).

The values above are taken from PubChem BioAssay AID651859 (Sanford-Burnham Center for Chemical Genomics, 2012).
